Inconclusive results and toxic doses are left out.
Test system: L1210 leukemia ip in BDF1 mice, survival T/C
Assay: NCI In Vivo Anticancer Drug Screen. Data for tumor model L1210 Leukemia (intraperitoneal) in B6D2F1 (BDF1) mice
Settings: endpoint: mean survival time, schedule: Q04DX002 (ip), vehicle: saline with Tween-80, higher = longer survival
Summary of the method: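 Transplantable tumor model; survival measured in treated vs vehicle control mice. Value = treated/control.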

O=S1(=O)CCCCC1=C(c1ccccc1)c1ccccc1
T/C (dose: 100.0 mg/kg/injection): 89 % of control | T/C (dose: 200.0 mg/kg/injection): 89 % of control

— PubChem BioAssay AID248 (DTP/NCI, 2004)
